Experimental data reported in patent publication US20220177891A1, “HIPK INHIBITORS AND METHODS OF USE THEREOF” (Board of Regents, The University of Texas System, priority 2019, published 2022).
pIC50: −log10 of the molar value.

Legend:
HIPK4 [1] = target: T1, HIPK4 (Homo sapiens, UniProt Q8NE63); experiment: HIPK4 kinase inhibition by VIB-MDA compounds (FIG. 5, 6); format: biochemical; conditions: for potency and specificity for HIPK4: Table 1, FIG. 5
T1 sequence (Q8NE63 1-616): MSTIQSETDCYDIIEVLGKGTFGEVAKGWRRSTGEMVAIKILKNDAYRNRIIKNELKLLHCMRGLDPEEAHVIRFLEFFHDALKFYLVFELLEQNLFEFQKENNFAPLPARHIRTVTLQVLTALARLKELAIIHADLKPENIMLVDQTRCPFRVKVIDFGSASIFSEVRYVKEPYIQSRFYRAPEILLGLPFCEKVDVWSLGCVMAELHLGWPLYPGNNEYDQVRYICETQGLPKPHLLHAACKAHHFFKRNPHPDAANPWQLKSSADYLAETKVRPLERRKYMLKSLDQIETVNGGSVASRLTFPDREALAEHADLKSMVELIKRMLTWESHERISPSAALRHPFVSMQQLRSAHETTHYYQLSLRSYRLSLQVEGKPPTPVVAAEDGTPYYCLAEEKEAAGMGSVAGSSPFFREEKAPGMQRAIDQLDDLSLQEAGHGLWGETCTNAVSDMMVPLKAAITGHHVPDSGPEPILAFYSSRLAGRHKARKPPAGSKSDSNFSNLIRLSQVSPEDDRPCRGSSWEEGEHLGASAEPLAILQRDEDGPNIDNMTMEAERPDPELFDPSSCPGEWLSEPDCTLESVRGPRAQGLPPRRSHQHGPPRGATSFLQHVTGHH

[2] = tested on: MDA-MB-231 cells overexpressing HIPK4; experiment: Transwell migration of HIPK4-overexpressing MDA-MB-231 cells (FIG. 11A); format: cell-based, human; conditions: MDA-MB-231 cells overexpressing HIPK4, FIG. 11A
Protocol: The in vitro migration and invasion assay was carried out using transwell chamber. Briefly, 0.2-2.0×10^5 cells/ml cells were suspended in serum-free medium with 5% bovine serum albumin and then were placed in the upper compartment, and medium with 5% fetal bovine serum was added in the lower compartment. Following incubation in cell culture incubator for 6-32 h, non-migratory and noninvasive cells on the upper surface were gently removed by a cotton swab. The cells on the bottom of membrane were stained with cell stain solution at room temperature for 10 min. Images of the invading cells were taken with at least three individual fields per chamber by a fluorescent inverted microscope (Olympus IX81 Motorized Inverted Microscope, Japan). The chambers were transferred to an empty well, and 200 μL of Extraction Solution was added to each well. After incubating 10 minutes on an orbital shaker, 100 μL of solution was transferred from each well to a 96-well microtiter plate for measurement under OD 560 nm in a plate reader.
(§1) Cells were plated into 6-well plate and grown for 1-2 days until reaching 70-80% confluence. Transfection of cells with HIPK4 cDNA was performed utilizing FuGENE® HD Transfection reagent. An amount of 2.5 μg of DNA and 7.5 μL of FuGENE® HD reagent were separately pipeted into 140 μL opti-MEM medium; incubate the FuGENE® HD transfection reagent/DNA mixture for 10-15 minutes at room temperature. Then the mixture was applied onto cells for 7 h in cell culture incubator. The transfection was stopped by replacing medium with complete medium. After 48 h, cells were harvest for further analysis.

HIPK and FAK/pFAK = experiment: Western blot of HIPK4-overexpressing triple negative breast cancer cells (FIG. 11B); format: cell-based, human
Protocol: as §1
(§2) Briefly, desired cells were harvested and lysed. The protein concentration in the lysates was quantified using the Bradford method with bovine serum albumin as standard. An equal amount of protein of 49 μg was separated by electrophoresis on SDS-polyacrylamide gels and transferred to PVDF membranes. After blocking with 5% nonfat milk, the membranes were incubated with the primary antibodies overnight at the following dilution: HIPK4 (1:500) and β-actin (1:20000). Subsequently, the membranes were incubated with appropriate secondary antibodies. The immunoreactive bands were visualized using enhanced chemiluminescence, as recommended by the manufacturer.

HIPK4 [3] = target: T1, HIPK4; experiment: Western blot of HIPK4 protein level with VIB-MDA compounds (FIG. 9); format: cell-based; set-up: endogenous in cells; context is GI101A and derivative cell lines
Protocol: as §2

DDR2 (Tyro10) = target: T2, DDR2 (Tyro10) (Homo sapiens, UniProt Q16832); experiment: DDR2 kinase inhibition by VIB-MDA compounds (FIG. 5, 6B); format: biochemical
T2 sequence (Q16832 22-855): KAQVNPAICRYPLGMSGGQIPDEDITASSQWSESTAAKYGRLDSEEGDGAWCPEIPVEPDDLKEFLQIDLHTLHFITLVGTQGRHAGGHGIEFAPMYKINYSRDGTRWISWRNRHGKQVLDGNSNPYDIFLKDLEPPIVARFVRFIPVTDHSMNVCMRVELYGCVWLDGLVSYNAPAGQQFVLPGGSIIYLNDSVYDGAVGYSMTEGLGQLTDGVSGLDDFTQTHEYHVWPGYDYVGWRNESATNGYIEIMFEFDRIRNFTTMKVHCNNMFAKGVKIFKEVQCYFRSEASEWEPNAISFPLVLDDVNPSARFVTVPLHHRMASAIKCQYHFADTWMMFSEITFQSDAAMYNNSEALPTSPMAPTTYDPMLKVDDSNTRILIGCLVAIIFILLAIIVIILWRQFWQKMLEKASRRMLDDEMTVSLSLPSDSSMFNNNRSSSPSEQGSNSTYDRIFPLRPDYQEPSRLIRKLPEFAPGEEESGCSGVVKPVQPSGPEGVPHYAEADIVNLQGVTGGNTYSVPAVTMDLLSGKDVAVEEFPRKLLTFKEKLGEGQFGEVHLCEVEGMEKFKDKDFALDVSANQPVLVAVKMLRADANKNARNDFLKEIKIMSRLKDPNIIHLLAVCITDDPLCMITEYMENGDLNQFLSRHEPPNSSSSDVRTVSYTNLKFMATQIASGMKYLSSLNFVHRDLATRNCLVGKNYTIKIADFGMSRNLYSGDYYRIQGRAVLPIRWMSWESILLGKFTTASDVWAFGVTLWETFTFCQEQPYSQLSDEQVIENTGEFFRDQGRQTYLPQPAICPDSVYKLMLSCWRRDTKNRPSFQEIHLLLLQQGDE

Transport into cells = format: cell-based
Tyro3 = target: T3, Tyro3 (Homo sapiens, UniProt Q06418); experiment: Tyro3 kinase inhibition (FIG. 5); format: biochemical
T3 sequence (Q06418 41-890): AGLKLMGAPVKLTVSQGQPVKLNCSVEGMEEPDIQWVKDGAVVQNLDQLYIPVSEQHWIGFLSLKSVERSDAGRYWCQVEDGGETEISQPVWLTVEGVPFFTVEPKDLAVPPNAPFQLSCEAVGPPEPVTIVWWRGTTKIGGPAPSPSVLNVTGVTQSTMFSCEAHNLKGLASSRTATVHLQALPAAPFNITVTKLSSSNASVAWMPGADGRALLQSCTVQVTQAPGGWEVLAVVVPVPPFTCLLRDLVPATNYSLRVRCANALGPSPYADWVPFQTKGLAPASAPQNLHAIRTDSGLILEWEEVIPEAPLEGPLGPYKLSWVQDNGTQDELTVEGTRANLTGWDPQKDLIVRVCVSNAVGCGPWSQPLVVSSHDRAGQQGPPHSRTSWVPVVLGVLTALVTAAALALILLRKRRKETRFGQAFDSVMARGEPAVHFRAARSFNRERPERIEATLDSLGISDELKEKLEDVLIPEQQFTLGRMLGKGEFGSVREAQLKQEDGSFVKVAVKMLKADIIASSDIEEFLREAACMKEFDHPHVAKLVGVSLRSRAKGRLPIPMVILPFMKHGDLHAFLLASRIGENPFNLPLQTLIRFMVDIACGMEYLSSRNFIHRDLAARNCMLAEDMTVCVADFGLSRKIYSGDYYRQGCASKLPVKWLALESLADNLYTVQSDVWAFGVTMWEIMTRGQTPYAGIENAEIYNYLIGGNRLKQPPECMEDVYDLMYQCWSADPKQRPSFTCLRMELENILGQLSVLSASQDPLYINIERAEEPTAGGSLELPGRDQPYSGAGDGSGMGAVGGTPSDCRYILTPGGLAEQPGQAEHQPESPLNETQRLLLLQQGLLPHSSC

[4] = target: Breast Tumor Kinase (BRK) (Homo sapiens, UniProt Q13882); experiment: Breast Tumor Kinase inhibition (FIG. 5); format: biochemical
Sequence of Breast Tumor Kinase (BRK) (Q13882 whole entry, species assumed): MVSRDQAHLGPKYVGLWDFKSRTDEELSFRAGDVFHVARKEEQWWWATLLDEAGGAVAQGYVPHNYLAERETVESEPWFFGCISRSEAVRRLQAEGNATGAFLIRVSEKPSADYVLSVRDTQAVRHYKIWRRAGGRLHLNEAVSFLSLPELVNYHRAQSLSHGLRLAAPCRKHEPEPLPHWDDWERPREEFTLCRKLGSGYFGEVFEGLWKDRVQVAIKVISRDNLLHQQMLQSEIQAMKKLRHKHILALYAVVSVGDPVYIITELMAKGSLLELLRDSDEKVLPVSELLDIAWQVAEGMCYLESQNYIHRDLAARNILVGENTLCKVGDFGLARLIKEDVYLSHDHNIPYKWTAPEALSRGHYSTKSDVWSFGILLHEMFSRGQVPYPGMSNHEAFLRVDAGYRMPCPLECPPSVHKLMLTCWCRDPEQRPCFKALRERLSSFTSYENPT

In the case of `CNC(=O)c1cc(Oc2ccc(NC(=O)c3nc(SC)[nH]c3-c3ccc(F)cc3)cc2)ccn1` [VIB-MDA-001], the “potency and specificity for HIPK4” value (HIPK4 [1]) was “extremely potent and highly specific for HIPK4”, the “migration from HIPK-overexpression” value [2] was “significantly inhibit” and the “expression of HIPK and FAK/pFAK” value (HIPK and FAK/pFAK) was “significantly inhibit”. For the same compound, the “inhibition of HIPK4 expression” value (HIPK4 [3]) was “Selective inhibition”.

For `CNC(=O)c1cc(Oc2ccc(NC(=O)c3nc(SC)oc3-c3ccc(F)cc3)cc2)ccn1` [VIB-MDA-002], the “potency for HIPK4 relative to the other VIB-MDA compounds” value (HIPK4 [1]; FIG. 5) was “highest potency”, the “blocking HIPK4 kinase activity” value (HIPK4 [1]; FIG. 6) was “high efficacy” and the pIC50 (HIPK4 [1]; FIG. 6B) was 7.82. For the same compound, the “potency and specificity for HIPK4” value (HIPK4 [1]) was “extremely potent and highly specific for HIPK4”, the “specificity for HIPK4 compared to Sorafenib” value (HIPK4 [1]; kinase inhibition profile, FIG. 6A) was “greatly increased specificity” and the “potency for DDR2 relative to the other VIB-MDA compounds” value (DDR2 (Tyro10); FIG. 5) was “highest potency”. The pIC50 (DDR2 (Tyro10); FIG. 6B, second most inhibited kinase) was 7.00, the transport into cells (Transport into cells) was “excellent transport into cells” and the “potency for Tyro3 relative to the other VIB-MDA compounds” value (Tyro3) was “highest potency”. For the same compound, the “potency for BRK relative to the other VIB-MDA compounds” value [4] was “highest potency”, the “migration from HIPK-overexpression” value [2] was “significantly inhibit” and the “expression of HIPK and FAK/pFAK” value (HIPK and FAK/pFAK) was “significantly inhibit”. The “inhibition of HIPK4 expression” value (HIPK4 [3]) was “Selective inhibition”.

With `CNC(=O)c1cc(Oc2ccc(NC(=O)c3nc(S(C)(=O)=O)sc3-c3ccc(F)cc3)cc2)ccn1` [VIB-MDA-003] the “potency and specificity for HIPK4” value (HIPK4 [1]) was “extremely potent and highly specific for HIPK4”, the “migration from HIPK-overexpression” value [2] was “significantly inhibit” and the “expression of HIPK and FAK/pFAK” value (HIPK and FAK/pFAK) was “significantly inhibit”. The “inhibition of HIPK4 expression” value (HIPK4 [3]) was “Selective inhibition”.
